Laboratory results reported in paper PMC12114750 (Pharmaceuticals, 2025).
Where two headings read alike, the source gives them in different places.

Assays:
FL83B hepatocytes = assay: Cytotoxicity (in vitro hepatotoxicity) MTT assay, FL83B; type: cell-based; details: 24 h, normal murine hepatocytes
Protocol: (§1) Hepatocyte cells (FL83B; ATCC: CLR-2390) were cultured in F-12K medium. Human neuroblastoma (SH-SY5Y; ATCC: CRL-2266) cells were cultivated in DMEM/F12 medium. All media were supplemented with fetal bovine serum (10%) (Biowest, Riverside, MO, USA) and 1% antibiotic/antimycotic solution (Biowest, Nuaill’e, France).
(§2) Cells were seeded at an appropriate density to promote optimal growth, and the culture medium was replaced every 48 h. Once cells reached 80–90% confluence, subculture was performed using 0.25% trypsin-EDTA to dissociate the cells, by 2 min and put inside of chamber during 5 min, according to the protocol provided by the biobanks. The cell lines were maintained at 37 °C in a humidified incubator with 5% CO2 and 95% humidity.
(§3) Cells were seeded in 96-well plates (HepG-2: 2.5 ×10^4 cells; HCT-15: 2.5 × 10^4 cells/mL; MCF-7: 2.5 × 10^4 cells/mL; SH-SY5Y: 5.0 × 10^4 cells/mL; FL83B: 5.0 × 10^4 cell/mL; DU-145: 5.0 × 10^4 cell/mL). Cancer cell lines were exposed to compounds (100 μM) for 24 h and vehicle/controls were included to assess potential solvent interference. Cell viability was assessed using MTT assay. Then, the culture medium was removed and 100 μL of MTT (0.5 mg/mL) was added to each cell. Cells were incubated for 1 h in the dark under the same culture condition (37 °C, 5% CO2, 95% humidity). After incubation, the intracellular formazan crystals were solubilized with 100 μL DMSO and, after […], the absorbance was measured at 570 nm using a microplate reader (Synergy H1). […] Results were expressed as a percentage of control untreated cells and the half-maximal inhibitory concentration (IC50) values were determined using nonlinear regression analysis (GraphPad Prism, 8.1, GraphPad Software, San Diego, CA, USA).

[1] = system: HCT-15 (colorectal adenocarcinoma); assay: cells; type: cell-based, human; details: for IC50: Homo sapiens, HCT-15, 24 h, MTT
Protocol: (§4) Breast adenocarcinoma cells (MCF-7; DSMZ: ACC 115), colon adenocarcinoma cells (HTC-15; DSMZ: CCL-225), and prostate cells (DU-145; ATCC: HRB-81) were cultured in RPMI 1640 medium.
as §2, §3

[2] = system: DU-145 (prostate adenocarcinoma); assay: Cytotoxicity MTT assay, DU-145; type: cell-based, human; details: for IC50: 24 h, MTT
Protocol: as §4, §2, §3

[3] = system: SH-SY5Y neuroblastoma cell line; assay: Cytotoxicity MTT assay, SH-SY5Y; type: cell-based, human; details: 24 h
Protocol: as §1, §2, §3

[4] = system: MCF-7 (breast adenocarcinoma); assay: cells; type: cell-based; details: for IC50: Homo sapiens, MCF7, 24 h, MTT
Protocol: as §4, §2, §3

[5] = system: differentiated SH-SY5Y neuroblastoma cells; assay: Neuroprotective capacity on a Parkinson's disease cellular model (6-OHDA, MTT); details: 6-OHDA 100 μM, 24 h
Protocol: Only at these non-toxic concentrations (0.01–10 µM; 24 h) were the compounds subsequently tested for their neuroprotective potential in an in vitro PD damage model using differentiated SH-SY5Y neuroblastoma cells. The cells, previously differentiated to obtain a dopaminergic neuronal phenotype [52], were treated with compounds in the presence of the neurotoxin 6-OHDA (100 µM). The cells’ viability was estimated using the 3-(4,5-dimethylthiazol-2-yl)−2,5-diphenyltetrazolium bromide (MTT) assay.
Cells were differentiated to obtain dopaminergic neuronal phenotype according to [52], with slight modifications. […] At the end of the 8th day, the cytotoxicity assay was performed.
Cell viability on SH-SY5Y cells was evaluated after exposure to the compounds at 10 μM for 24 h. […] The cell viability and neuroprotective effects were assessed by a colorimetric assay based on the reduction of tetrazolium salts MTT (VWR, Solon, OH, USA) to blue formazan products, according to [61]. Saponin (Sigma-Aldrich, Steinheim, Germany) was used as a positive control for inducing cellular death. The results were expressed as a percentage of the control (untreated cells).

[6] = biological target: T1, Acetylcholinesterase (from Electrophorus electricus) (Electrophorus electricus, UniProt O42275); assay: biochemical; details: read-out: AChE Inhibition (%)
T1 construct: purchased Sigma
Protocol: (§5) The inhibitory effects of the compounds on AChE and BChE were assessed by Elman’s method.
(§6) Acetylcholinesterase (from Electrophorus electricus), Butyrylcholinesterase (from equine serum), 5,5′-dithiobis-(2-nitrobenzoic acid) (DTNB), and acetylthiocholine iodide were purchased from Sigma.
Preparation of 50 mM Tris-HCl buffer solutions: Tris(hydroxymethyl)-aminomethane (606 mg) was dissolved in bidestilled water (100 mL) and adjusted with HCl to a pH of 8.0 ± 0.1. Buffers were freshly prepared and stored in the refrigerator. AChE solution 2.005 U/mL: The enzyme (271 U/mg, 0.037 mg) was dissolved in freshly prepared buffer pH 8.0 (5 mL) containing NaN3 (0.98 mg). BChE solution 2.040 U/mL: The enzyme (7.54 U/mg, 1.353 mg) was dissolved in freshly prepared buffer pH 8.0 (5 mL) containing NaN3 (0.98 mg). DTNB solution 3 mM: DTNB (23.8 mg) was dissolved in freshly prepared buffer pH 8.0 (20 mL) containing NaCl (116.8 mg) and MgCl2 (38.0 mg). […]
BMG Labtech Spectrostar Omega plate reader working in the slow kinetics mode and measuring the absorbance at a distinct wavelength of λ = 412 nm with center scanning mode was used for the enzymatic studies. […] The absorbance data were recorded under a controlled temperature of 30 °C for 30 min at 1 min intervals at l = 412 nm. The relative inhibition was determined as the quotient of the slopes (compound divided by blank) of the linear ranges (10 repetitions). […]

[7] = biological target: T2, Butyrylcholinesterase (from equine serum) (Equus caballus, UniProt P81908); assay: biochemical; type: biochemical; details: for Ki: read-out: BChE Ki; for inhibition at 50 µM: read-out: BChE Inhibition (%)
T2 construct: Butyrylcholinesterase (from equine serum); purchased Sigma; host or cells: equine serum
Protocol: as §5, §6
Preparation of 50 mM Tris-HCl buffer solutions: Tris(hydroxymethyl)-aminomethane (606 mg) was dissolved in bidestilled water (100 mL) and adjusted with HCl to a pH of 8.0 ± 0.1. Buffers were freshly prepared and stored in the refrigerator. AChE solution 2.005 U/mL: The enzyme (271 U/mg, 0.037 mg) was dissolved in freshly prepared buffer pH 8.0 (5 mL) containing NaN3 (0.98 mg). BChE solution 2.040 U/mL: The enzyme (7.54 U/mg, 1.353 mg) was dissolved in freshly prepared buffer pH 8.0 (5 mL) containing NaN3 (0.98 mg). DTNB solution 3 mM: DTNB (23.8 mg) was dissolved in freshly prepared buffer pH 8.0 (20 mL) containing NaCl (116.8 mg) and MgCl2 (38.0 mg). ATChI solution 15 mM: ATChI (43.4 mg) was dissolved in bidestilled water (10 mL). All solutions were stored in Eppendorf caps in the refrigerator or in the freezer, if necessary. […] The final concentrations for the enzymatic assay were obtained by diluting the stock solution with bidistilled water.
BMG Labtech Spectrostar Omega plate reader working in the slow kinetics mode and measuring the absorbance at a distinct wavelength of λ = 412 nm with center scanning mode was used for the enzymatic studies. In short, a mixture of a DTNB solution (125 µL, 3 mM in 50 mM Tris-HCl buffer, pH 8), enzyme solution (25 µL, 2 U/mL), and compounds solutions (25 µL, 3 different concentrations and water as a blank) was incubated at 30 °C for 20 min. The substrate (25 µL, [ATChI] = 0.9375 mM, 0.625 mM, […], 0.1875 mM) was added to start the enzymatic reaction. The absorbance data were recorded under a controlled temperature of 30 °C for 30 min at 1 min intervals at l = 412 nm. The relative inhibition was determined as the quotient of the slopes (compound divided by blank) of the linear ranges (10 repetitions). Galantamin was used as control substance. To determine the kinetic constants, standard linearization methods were used after applying an internal standard (Dixon/Cornish–Bowden plots) (triplicates).

T2 sequence (P81908 whole entry): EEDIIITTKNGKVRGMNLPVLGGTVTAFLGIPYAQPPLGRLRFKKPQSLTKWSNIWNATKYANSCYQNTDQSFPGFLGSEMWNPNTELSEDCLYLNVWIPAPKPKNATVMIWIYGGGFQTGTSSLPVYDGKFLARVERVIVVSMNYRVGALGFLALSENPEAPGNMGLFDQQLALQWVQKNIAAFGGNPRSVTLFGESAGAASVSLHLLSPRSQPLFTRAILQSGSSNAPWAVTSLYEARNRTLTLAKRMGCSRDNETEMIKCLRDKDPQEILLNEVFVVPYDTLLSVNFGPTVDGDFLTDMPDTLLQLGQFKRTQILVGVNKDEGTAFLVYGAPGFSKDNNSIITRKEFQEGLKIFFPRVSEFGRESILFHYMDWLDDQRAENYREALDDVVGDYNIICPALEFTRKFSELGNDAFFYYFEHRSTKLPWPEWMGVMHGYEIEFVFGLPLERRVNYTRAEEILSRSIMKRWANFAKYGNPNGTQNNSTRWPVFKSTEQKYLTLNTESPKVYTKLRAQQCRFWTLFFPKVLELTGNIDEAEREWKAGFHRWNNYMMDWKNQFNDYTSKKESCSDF
T1 sequence (O42275 24-633): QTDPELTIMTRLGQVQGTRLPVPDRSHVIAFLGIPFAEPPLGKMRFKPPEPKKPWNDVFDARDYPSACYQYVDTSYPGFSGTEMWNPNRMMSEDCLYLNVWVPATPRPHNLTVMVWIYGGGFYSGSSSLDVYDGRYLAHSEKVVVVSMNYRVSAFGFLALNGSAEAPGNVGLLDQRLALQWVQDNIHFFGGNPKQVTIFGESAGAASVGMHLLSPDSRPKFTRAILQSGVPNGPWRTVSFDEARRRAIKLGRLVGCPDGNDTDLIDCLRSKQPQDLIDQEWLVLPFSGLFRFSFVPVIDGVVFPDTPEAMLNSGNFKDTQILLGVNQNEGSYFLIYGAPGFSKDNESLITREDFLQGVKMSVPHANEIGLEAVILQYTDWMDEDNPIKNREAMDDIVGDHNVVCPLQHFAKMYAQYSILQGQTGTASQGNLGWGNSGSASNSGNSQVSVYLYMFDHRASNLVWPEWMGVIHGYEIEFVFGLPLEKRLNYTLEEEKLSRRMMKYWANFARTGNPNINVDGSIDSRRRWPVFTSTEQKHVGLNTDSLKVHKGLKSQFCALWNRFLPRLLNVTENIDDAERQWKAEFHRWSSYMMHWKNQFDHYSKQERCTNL

O=c1[nH]cc(F)c(=O)[nH]1 [5-Fluorouracil, reference compound]
IC50 (FL83B hepatocytes; Mus musculus, FL83B): > 100 µM
IC50 [1]: 156 µM

N.N.[Cl][Pt][Cl] [Cisplatin, reference compound]
IC50 [2]: > 100 µM
IC50 (FL83B hepatocytes): 25.7 µM
IC50 [3]: 13.9 µM

CC(=O)O[C@@H]1CN(C(C)=O)C(=O)[C@H](OC(C)=O)[C@H]1OCc1ccccc1 [Compound 3, N-acetyl 2,4-di-O-acetyl-3-O-benzyl-D-xylono-1,5-lactam]
IC50 ([2]; Homo sapiens, DU-145): > 100 µM
IC50 [4]: > 100 µM
IC50 ([3]; Homo sapiens, SH-SY5Y): > 100 µM
IC50 [1]: > 100 µM

NCCc1cc(O)c(O)cc1O [Compound 6-OHDA, 6-hydroxydopamine]
reduction of differentiated SH-SY5Y cells' viability [5]: 40%
viable cells, 6-OHDA alone ([5]; MTT, % of control): 61.3 ± 1.4 % of viable cells

CC(=O)O[C@@H]1[C@@H](OCc2ccccc2)[C@@H](CN=[N+]=[N-])O[C@H]1n1cnc2c(Cl)ncnc21 [Compound 7, 9-(2-O-Acetyl-5-azido-3-O-benzyl-5-deoxy-β-D-xylofuranosyl)-6-chloropurine]
IC50 ([2]; Homo sapiens, DU-145): > 100 µM
IC50 [4]: > 100 µM
IC50 (FL83B hepatocytes; Mus musculus, FL83B): 22.7 µM
IC50 ([3]; Homo sapiens, SH-SY5Y): > 100 µM
IC50 [1]: 72.7 µM

CC(=O)O[C@@H]1[C@@H](OCc2ccccc2)[C@@H](CN=[N+]=[N-])O[C@H]1n1cnc2ncnc(Cl)c21 [Compound 8, 7-(2-O-acetyl-5-azido-3-O-benzyl-5-deoxy-β-D-xylofuranosyl)-6-chloropurine]
IC50 ([2]; Homo sapiens, DU-145): > 100 µM
IC50 [4]: > 100 µM
IC50 ([3]; Homo sapiens, SH-SY5Y): > 100 µM
IC50 [1]: > 100 µM

CC(=O)O[C@@H]1[C@@H](OCc2ccccc2)[C@@H](CN=[N+]=[N-])O[C@H]1n1ccc(=O)[nH]c1=O [Compound 9, 1-(2-O-Acetyl-5-azido-3-O-benzyl-5-deoxy-β-D-xylofuranosyl)uracil]
IC50 ([2]; Homo sapiens, DU-145): > 100 µM
IC50 [4]: > 100 µM
IC50 ([3]; Homo sapiens, SH-SY5Y): > 100 µM
IC50 [1]: > 100 µM

CC(=O)OC1C(OCc2ccccc2)C(CNC(=NC(=O)OC(C)(C)C)NC(=O)OC(C)(C)C)OC1n1cnc2c(Cl)ncnc21 [Compound 10, 9-{2-O-acetyl-3-O-benzyl-5-deoxy-5-[N′,N′′-bis(tert-butoxycarbonyl)]guanidino-β-D-xylofuranosyl}-6-chloropurine]
IC50 ([2]; Homo sapiens, DU-145): 27.6 µM
inhibition at 50 µM [6]: 39.1 ± 0.9%
IC50 [4]: > 100 µM
BChE inhibitory activity, fold higher than that of galantamine [7]: ca. 10 fold
BChE type of inhibition [7]: mixed-type
Ki ([7]; competitive component): 0.89 ± 0.08 µM
inhibition at 50 µM [7]: 83.8 ± 1.3%
BChE Ki′ ([7]; uncompetitive component): 2.96 ± 0.39 µM
Ki ([7]; uncompetitive component, listed as N^9 regioisomer): 2.96 µM
IC50 (FL83B hepatocytes; Mus musculus, FL83B): 73.7 µM
IC50 ([3]; Homo sapiens, SH-SY5Y): > 100 µM
IC50 [1]: > 100 µM

CC(=O)OC1C(OCc2ccccc2)C(CNC(=NC(=O)OC(C)(C)C)NC(=O)OC(C)(C)C)OC1n1cnc2ncnc(Cl)c21 [Compound 11, 7-(2-O-acetyl-3-O-benzyl-5-deoxy-5-[N′,N′′-bis(tert-butoxycarbonyl)]guanidino-β-D-xylofuranosyl)-6-chloropurine]
effect against DU-145 cells, fold higher than cisplatin [2]: 4 fold
IC50 ([2]; Homo sapiens, DU-145): 24.5 µM
inhibition at 50 µM [6]: 34.6 ± 1.4%
cytotoxicity in MCF-7 cells, fold lower than tamoxifen [4]: 1.6 fold
IC50 [4]: 43.7 µM
BChE Ki, fold higher than that of the N^9-counterpart [7]: ca. 2 fold
BChE inhibitory activity, fold higher than that of galantamine [7]: ~4 fold
BChE type of inhibition [7]: mixed-type
Ki ([7]; competitive component): 2.34 ± 0.2 µM
inhibition at 50 µM [7]: 65.2 ± 0.9%
BChE Ki′ ([7]; uncompetitive component): 10.6 ± 1.4 µM
IC50 (FL83B hepatocytes; Mus musculus, FL83B): 24.1 µM
IC50 ([3]; Homo sapiens, SH-SY5Y): 12.1 µM
IC50 [1]: 64.1 µM

CC(=O)O[C@@H]1[C@@H](OCc2ccccc2)[C@@H](CNC(=NC(=O)OC(C)(C)C)NC(=O)OC(C)(C)C)O[C@H]1n1ccc(=O)[nH]c1=O [Compound 12, 1-(2-O-Acetyl-3-O-benzyl-5-deoxy-5-[N′,N′′-bis(tert-butoxycarbonyl)]guanidino-β-d-xylofuranosyl)uracil]
IC50 ([2]; Homo sapiens, DU-145): > 100 µM
IC50 [4]: > 100 µM
IC50 (FL83B hepatocytes; Mus musculus, FL83B): > 100 µM
IC50 ([3]; Homo sapiens, SH-SY5Y): > 100 µM
cytotoxicity against HCT-15, fold higher (IC50 fold lower) than 5-fluorouracil [1]: ca. 2 fold
IC50 [1]: 76 µM

COc1ccc2c3c1O[C@H]1C[C@@H](O)C=C[C@@]31CCN(C)C2 [Galantamine, reference compound]
BChE type of inhibition [7]: competitive
inhibition at 50 µM [7]: 52 ± 0.5%
